Source: article PMC11243693, “Synthesis and Biological Evaluation of New Compounds with Nitroimidazole Moiety” (Molecules, 2024)
≈ marks a conversion by molar mass, not a printed value.

Columns and labels:
[1] = system: HaCaT cells; assay: MTT assay, HaCaT normal cells; type: cell-based; details: HaCaT human immortal keratinocyte (normal cells), 24 h, mean SD
Experimental: (§1) Colon cancer (SW480), breast adenocarcinoma (MDA-MB-231), lung carcinoma (A-549), prostate cancer (PC3), and immortal keratinocyte (HaCaT) cell lines of human origin were acquired from the American Type Culture Collection (ATCC). The recommended culture media and protocols provided by ATCC were as follows: SW480 were cultured in Minimum Essential Medium (MEM), MDA-MB-231, A-549, and HaCaT cells were cultured in Dulbecco’s Modified Eagle Medium (DMEM), while PC3 was cultured in Roswell Park Memorial Institute Medium (RPMI). The culture media were supplemented with 10% fetal bovine serum (FBS), penicillin (100 U/mL), and streptomycin (100 μg/mL). Cells were maintained in a humidified incubator at 37 °C with 5% CO2. Passaging was carried out upon reaching 80–90% confluence using 0.25% trypsin (Gibco Life Technologies, New York, NY, USA) treatment prior to experimentation.
(§2) Cell viability was assessed utilizing the MTT assay, which relies on the conversion of 3-(4,5-dimethylthiazol-2-yl)-2,5-diphenyltetrazolium bromide salt (MTT) to formazan crystals by mitochondrial dehydrogenases in viable cells. Initially, cells were plated in 96-well plates at a density of 1 × 10^4 cells per well and allowed to attach for 24 h at 37 °C in a CO2 incubator. Subsequently, the culture medium was replaced with fresh medium containing various concentrations of the test compounds (ranging from 1 to 100 μM), and cells were further cultured for 24 h at 37 °C in a CO2 incubator. Control wells were left untreated for comparison. After the incubation period, MTT solution (0.5 mg/mL in serum-free medium) was added to each well, followed by a 4-h incubation at 37 °C in a CO2 incubator. The medium was then aspirated, and the formazan crystals were dissolved by adding a mixture of isopropanol and DMSO (1:1). The absorbance of the resulting solution was measured at 570 nm using a UVM 340 reader (ASYS Hitech GmbH, Seekirchen am Wallersee, Austria). IC50 values were determined using GraphPad software (GraphPad Prism 8 Software).

[2] = system: SW620 cells; assay: MTT assay, SW620 cells; type: cell-based, human; details: for SI (Selectivity Index): IC50 for normal cell line (HaCaT)/IC50 SW620; for IC50: SW620 human metastatic colon cancer, MTT, 24 h, mean SD
[3] = system: MDA-MB-231 cells; assay: MTT assay, MDA-MB-231 cells; type: cell-based, human; details: for IC50: MDA-MB-231 human breast adenocarcinoma, MTT, 24 h, mean SD
Experimental: as §1, §2

[4] = system: PC3 cells; assay: MTT assay, PC3 cells; type: cell-based, human; details: for SI (Selectivity Index): IC50 for normal cell line (HaCaT)/IC50 PC3; for IC50: PC-3, PC3 human metastatic prostate cancer, MTT, 24 h, mean SD
Experimental: as §1, §2

[5] = system: A-549 cells; assay: MTT assay, A-549 cells; type: cell-based, human; details: for IC50: A-549 human lung carcinoma, MTT, 24 h, mean SD
Experimental: as §1, §2

[6] = system: Bacillus cereus ATCC 10876; assay: Broth microdilution, B. cereus ATCC 10876; type: cell-based; details: Bc 10876
In short: (§3)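 EUCAST broth microdilution: inoculum 0.5 McFarland, 10-fold diluted; Mueller-Hinton broth (bacteria) or MH + 2% glucose (yeast); twofold dilutions from 1000 µg/mL; 18 ± 2 h at 35 ± 2 °C, A570 read for MIC. MBC/MFC from subculture on MHA or MHA + 2% glc (99.9% kill).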

[7] = system: Candida glabrata ATCC 90030; assay: Broth microdilution, C. glabrata ATCC 90030; type: cell-based; details: Cg 90030
In short: as §3

[8] = system: Staphylococcus aureus ATCC 6538; assay: Broth microdilution, S. aureus ATCC 6538; type: cell-based; details: Sa 6538
In short: as §3

[9] = system: Staphylococcus aureus ATCC 25923; assay: Broth microdilution, S. aureus ATCC 25923; type: cell-based; details: Sa 25923
In short: as §3

[10] = system: Candida tropicalis ATCC 1369; assay: Broth microdilution, C. tropicalis ATCC 1369; type: cell-based; details: Ct 1369; for MFC/MIC Ratio: <4 fungicidal, ≥4 fungistatic
In short: as §3

[11] = system: Staphylococcus epidermidis ATCC 12228; assay: Broth microdilution, S. epidermidis ATCC 12228; type: cell-based; details: Se 12228; for MBC/MIC Ratio: <4 bactericidal, ≥4 bacteriostatic
In short: as §3

[12] = system: Micrococcus luteus ATCC 10240; assay: Broth microdilution, M. luteus ATCC 10240; type: cell-based; details: Ml 10240; for MBC/MIC Ratio: <4 bactericidal, ≥4 bacteriostatic
In short: as §3

[13] = system: Candida parapsilosis ATCC 22019; assay: Broth microdilution, C. parapsilosis ATCC 22019; type: cell-based; details: Cp 22019
In short: as §3

[14] = system: Candida spp.; assay: Broth microdilution, Candida spp.; type: cell-based; details: range over both strains and the listed compounds
Experimental: The antibacterial activity of the obtained thiosemicarbazides and hydrazide–hydrazones was determined by evaluating their ability to inhibit microbial growth in vitro using the broth microdilution method, according to the guidelines of the European Committee on Antimicrobial Susceptibility Testing (EUCAST). The method involved the preparation of microbial suspensions with a standardized density of 0.5 on the McFarland scale (equivalent to 1.5 × 10^8 colony-forming units/mL for bacteria and […] for fungi). A solution of the test substances was then prepared (initial concentration 1000 µg/mL, diluted in sterile Mueller-Hinton broth for bacteria or Mueller-Hinton with 2% glucose for fungi). The test was carried out in 96-well polystyrene flat-bottom plates (Medlab, Poland) with 100 µL of appropriate sterile microbiological medium in each well. The first wells were filled with 200 µL of the test substance, diluted to the initial concentration, and then double-decreasing dilutions were made under aseptic conditions using an automatic pipette. The final step was the addition of a 10-fold diluted microbial suspension of 2 µL. At the same time, the following controls were included: (a) medium control (100 µL of sterile medium without microorganisms added), (b) microbial viability control, (c) test substance control (dilutions without added micro-organisms), (d) positive control of the drug used in the clinic. The plates thus prepared were incubated for 18 ± 2 h at 35 ± 2 °C under conditions optimal for the growth of the test microorganisms. After incubation, the spectrophotometric absorbance at 570 nm in each well of the plate was read. The aim of this part of the study was to determine two parameters: the minimum inhibitory concentration (MIC) and the minimum bactericidal or fungicidal concentration (MBC/MFC) of the test compound. […] The MBC value was determined by adding 5 µL of the contents of each well of the plate to solid sterile MHA or MHA + 2%glc medium for bacteria and fungi, respectively. The area on the plate where 99.9% inhibition of microbial growth was observed indicated the lethal concentration. In addition, the quotient MBC(MFC)/MIC could be determined to assess the nature of the activity of the test substance. If MBC(MFC)/MIC was <4, the test substance was bactericidal/fungicidal, whereas if MBC(MFC)/MIC was ≥4, it was bacteriostatic/fungistatic. Amoxicillin (Glentham Life Sciences, USA) and nystatin (Glentham Life Sciences, USA) were used as the controls for this assay.
The test was performed either on bacteria, comprising: Gram-positive (Staphylococcus aureus ATCC 25923, Staphylococcus aureus ATCC 6538, Staphylococcus aureus ATCC 43300 methicillin-resistant MRSA, Staphylococcus epidermidis ATCC 12228, Micrococcus luteus ATCC 10240, Bacillus subtilis ATCC 6633, Bacillus cereus ATCC 10876) and Gram-negative (Escherichia coli ATCC 25922, Pseudomonas aeruginosa ATCC 27853, Proteus mirabilis ATCC 12453, Klebsiella pneumoniae ATCC 13883) or yeast (Candida parapsilosis ATCC 22019, Candida glabrata ATCC 90030, Candida krusei ATCC 14243, Candida glabrata ATCC 15126, Candida tropicalis ATCC 1369, Candida auris CDC B11903, Candida lusitaniae ATCC 3449) reference strains from the American Type Culture Collection (ATCC) or the Centers for Disease Control and Prevention (CDC).

[15] = system: Bacillus subtilis ATCC 6633; assay: Broth microdilution, B. subtilis ATCC 6633; type: cell-based; details: Bs 6633; for MBC/MIC Ratio: <4 bactericidal, ≥4 bacteriostatic
In short: as §3

[16] = system: Candida krusei ATCC 14243; assay: Broth microdilution, C. krusei ATCC 14243; type: cell-based; details: Ck 14243
In short: as §3

[17] = system: Staphylococcus aureus ATCC 43300 methicillin-resistant MRSA; assay: Broth microdilution, S. aureus ATCC 43300 MRSA; type: cell-based; details: Sa 43300 MRSA
In short: as §3

[18] = system: Candida auris CDC B11903; assay: Broth microdilution, C. auris CDC B11903; type: cell-based; details: Ca B11903
In short: as §3

[19] = system: Candida glabrata ATCC 15126; assay: Broth microdilution, C. glabrata ATCC 15126; type: cell-based; details: Cg 15126
In short: as §3

[20] = system: Candida lusitaniae ATCC 3449; assay: Broth microdilution, C. lusitaniae ATCC 3449; type: cell-based; details: Cl 3449
In short: as §3

| Compound | IC50 [1] | SI (Selectivity Index) [2] | IC50 ([2]; SW-620) | IC50 [3] | SI (Selectivity Index) [4] | IC50 [4] | IC50 ([5]; A549) | MBC [6] | MIC [6] | MIC [7] | MBC [8] | MIC [8] | MBC [9] | MIC [9] | MFC [10] | MIC [10] | MFC/MIC Ratio [10] | MBC [11] | MIC [11] | MBC/MIC Ratio [11] | also measured |
| --- | --- | --- | --- | --- | --- | --- | --- | --- | --- | --- | --- | --- | --- | --- | --- | --- | --- | --- | --- | --- | --- |
| COc1ccc(C=NNC(=O)c2nc([N+](=O)[O-])cn2C)c(O)c1 [Compound 30, N’-[(2-hydroxy-4-methoxyphenyl)methylidene]-1-methyl-4-nitro-1H-imidazole-2-carbohydrazide] | 97 ± 5.48 µM | 1.5 | 64.2 ± 6.88 µM | > 100 µM | 1.4 | 70.2 ± 4.2 µM | > 100 µM | – | – | – | – | – | – | – | – | – | – | – | – | – | melting point: 214 to 216 °C |
| N.N.[Cl][Pt][Cl] [Cisplatin, cisplatin] | 6.3 ± 0.7 µM | – | – | 7.8 ± 0.98 µM | – | – | – | – | – | – | – | – | – | – | – | – | – | – | – | – | IC50 [2]: 6.7 ± 1.1 µM; IC50 [5]: 3.2 ± 1.24 µM |
| Cn1cc([N+](=O)[O-])nc1C(=O)NNC(=S)Nc1ccccc1Cl [Compound 3] | – | – | – | – | – | – | – | >1000 µg/mL | 1000 µg/mL (≈ 2820 µM) | >1000 µg/mL | >1000 µg/mL | 500 µg/mL (≈ 1410 µM) | >1000 µg/mL | 250 µg/mL (≈ 705 µM) | 500 µg/mL (≈ 1410 µM) | 250 µg/mL (≈ 705 µM) | 2 | 500 µg/mL (≈ 1410 µM) | 250 µg/mL (≈ 705 µM) | 2 | MBC [12]: 250 µg/mL (≈ 705 µM); MIC [12]: 250 µg/mL (≈ 705 µM); MBC/MIC Ratio [12]: 1; MFC [13]: >1000 µg/mL; MIC [13]: 250 µg/mL (≈ 705 µM); MBC (range, C. parapsilosis ATCC 22019 and C. tropicalis ATCC 1369) [14]: 500 to 1000 µg/mL; MIC (range, C. parapsilosis ATCC 22019 and C. tropicalis ATCC 1369) [14]: 62.5 to 1000 µg/mL; MBC [15]: 125 µg/mL (≈ 352 µM); MIC [15]: 125 µg/mL (≈ 352 µM); MBC/MIC Ratio [15]: 1; MIC [16]: >1000 µg/mL; MBC [17]: >1000 µg/mL; MIC [17]: 1000 µg/mL (≈ 2820 µM); MIC [18]: >1000 µg/mL; MIC [19]: >1000 µg/mL; MIC [20]: >1000 µg/mL |
| Cn1cc([N+](=O)[O-])nc1C(=O)NNC(=S)Nc1cccc(Cl)c1 [Compound 4] | – | – | – | – | – | – | – | >1000 µg/mL | 250 µg/mL (≈ 705 µM) | >1000 µg/mL | >1000 µg/mL | 250 µg/mL (≈ 705 µM) | >1000 µg/mL | 62.5 µg/mL (≈ 176 µM) | 500 µg/mL (≈ 1410 µM) | 250 µg/mL (≈ 705 µM) | 2 | 125 µg/mL (≈ 352 µM) | 125 µg/mL (≈ 352 µM) | 1 | MBC [12]: 500 µg/mL (≈ 1410 µM); MIC [12]: 125 µg/mL (≈ 352 µM); MBC/MIC Ratio [12]: 4; MFC [13]: >1000 µg/mL; MIC [13]: 62.5 µg/mL (≈ 176 µM); MBC (range, C. parapsilosis ATCC 22019 and C. tropicalis ATCC 1369) [14]: 500 to 1000 µg/mL; MIC (range, C. parapsilosis ATCC 22019 and C. tropicalis ATCC 1369) [14]: 62.5 to 1000 µg/mL; MBC [15]: 62.5 µg/mL (≈ 176 µM); MIC [15]: 62.5 µg/mL (≈ 176 µM); MBC/MIC Ratio [15]: 1; MIC [16]: >1000 µg/mL; MBC [17]: >1000 µg/mL; MIC [17]: 500 µg/mL (≈ 1410 µM); MIC [18]: >1000 µg/mL; MIC [19]: >1000 µg/mL; MIC [20]: >1000 µg/mL |
| COc1cccc2c1C(=O)c1c(O)c3c(c(O)c1C2=O)C[C@@](O)(C(=O)CO)C[C@@H]3O[C@H]1C[C@H](N)[C@H](O)[C@H](C)O1 [Doxo-rubicin, doxorubicin] | 0.3 ± 0.1 µM | 1.0 | 0.3 ± 0.1 µM | 1.6 ± 0.23 µM | 1 | 0.3 ± 0.1 µM | 0.2 ± 0.09 µM | – | – | – | – | – | – | – | – | – | – | – | – | – | SI (Selectivity Index) ([3]; IC50 for normal cell line (HaCaT)/IC50 MDA-MB-231): 0.19; SI (Selectivity Index) ([5]; IC50 for normal cell line (HaCaT)/IC50 A-549): 1.5 |
